Reference: paper PMC9465256, “Discovering monoacylglycerol lipase inhibitors by a combination of fluorogenic substrate assay and activity-based protein profiling” (Frontiers in Pharmacology, 2022)
Where two headings read alike, the source gives them in different places.

Experiments:
A549 cells = assay: Cell viability assay (CCK-8), A549; type: cell-based; details: A549, 48 h; for IC50: Homo sapiens, read-out: Antiproliferation activity (pIC50 ± SEM) A549 (converted)
Description: (§1) Various cancer cell lines, including human colon cancer cell line HT-29, ovarian cell line OVCAR-3, melanoma cell line B16-F10, skin squamous cancer cells A431, cervical cancer cells Hela, lung cancer cell lines A549, H1975, and HCC827, were purchased from American type culture collection (ATCC). A431, H1975, B16-F10, OVCAR-3, HT-29, HCC827, Hela, and A549 cells were cultured in Dulbecco’s modified Eagle medium (DMEM, Gibco) containing 10% fetal bovine serum (FBS, Gibco), penicillin (100 U/ml) and streptomycin (100 μg/ml). All cell lines were maintained in a humidified 37°C incubator with 5% CO2. The medium was refreshed every 2–3 days and the cells were passaged at ∼90% confluence by adding the fresh medium, followed by vigorously pipetting the resuspend cells. Of note, the cells were only washed with PBS when a significant number of dead cells were observed.
(§2) The antiproliferation activity of the compounds against the cancer cell lines was evaluated using Cell Counting Kit-8. Briefly, cells (∼1,000 per well) in 100 µl of culture medium were plated in a 96-well plate for 24 h and 100 µl of medium with different concentrations of the tested compounds was added to each well for 48 h. Then 10 μl of CCK8 solution (#CK04, Dojindo) was added and incubated at 37°C for 2 h. The absorbance of each well was measured with a plate reader (BioTeck) at 450 nm. Cell viability was calculated as follows: cell viability (%) = [(As-Ab)/(Ac-Ab)] × 100. Among them, As represents the absorbance of experimental wells, Ab represents the absorbance of blank wells and Ac represents the absorbance of control wells. The experiments were repeated at least three times and IC50 values were determined by plotting a log(inhibitor) v. s normalized response (Variable slope) dose–response curve generated using GraphPad Prism software.

[1] = system: panel of cancer cell lines (A431, H1975, B16-F10, OVCAR-3, HT-29, HCC827, Hela, A549); assay: Cell viability assay (CCK-8), panel of eight cancer cell lines; type: cell-based; details: 48 h; for antiproliferative screening across the cell line panel: 20 µM
Description: as §1, §2

HT-29 cells = assay: Cell viability assay (CCK-8), HT-29; type: cell-based, human; details: HT-29, 48 h; for IC50: Homo sapiens, read-out: Antiproliferation activity (pIC50 ± SEM) HT-29 (converted)
Description: as §1, §2

OVCAR-3 cells = assay: Cell viability assay (CCK-8), OVCAR-3; type: cell-based; details: OVCAR-3, 48 h; for IC50: Homo sapiens, read-out: Antiproliferation activity (pIC50 ± SEM) OVCAR-3 (converted)
Description: as §1, §2

human MAGL = biological target: T1, human MAGL (Homo sapiens, UniProt Q99685); assay: MAGL activity assay (AA-HNA fluorogenic substrate); type: biochemical
T1 construct: expressed in transfected cells; host or cells: HEK293T (transient transfection; membrane fraction)
T1 sequence (Q99685 1-303): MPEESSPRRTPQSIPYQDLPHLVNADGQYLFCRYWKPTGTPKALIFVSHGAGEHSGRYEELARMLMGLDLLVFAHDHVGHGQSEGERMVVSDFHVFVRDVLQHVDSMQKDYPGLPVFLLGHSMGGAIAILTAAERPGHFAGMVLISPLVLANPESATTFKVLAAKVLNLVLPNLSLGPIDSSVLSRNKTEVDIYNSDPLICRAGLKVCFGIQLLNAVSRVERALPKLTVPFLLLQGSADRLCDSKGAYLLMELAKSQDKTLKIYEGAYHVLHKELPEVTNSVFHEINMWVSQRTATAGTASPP
Summary of the method: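 Membranes from transiently transfected HEK293T cells overexpressing MAGL were preincubated with inhibitor for 30 min in 40 mM HEPES pH 7.5 with 0.1 mg/ml BSA. AA-HNA substrate was then added (10 µl of 200 µM stock), and fluorescence was read every minute for 30 min. Activity was taken from the slope between 5 and 15 min.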

[2] = system: serine hydrolases labeled by FP-TAMRA in cancer cells; assay: Competitive ABPP in cancer cell lysates: selectivity / potential targets; type: biochemical; details: 100 µM, FP-TAMRA 500 nM, in-gel analysis
Description: To identify the potential off-targets of the compounds with anti-cancer activities, ABPP was applied. Cancer cells were seeded in the dishes and were washed with PBS, scraped, centrifugated (3,000 × g, 3 min) and pellets snap frozen in liquid in nitrogen. For ABPP experiments, the cell pellets were lysed by probe sonication (3 × 10 bursts) in PBS, followed by the determination of protein concentration of the intact cell lysate by Qubit assay. Subsequently, 20 µl of the cell lysate (1 mg/ml) was preincubated with 0.5 µl of DMSO (vehicle) or inhibitor (100 μM, finial concentration) for 30 min, followed by the treatment with FP-TAMRA (500 nM, final concentration) for 20 min. The reactions were then quenched by 10 µl sample buffer (×4). The obtained samples were directly loaded and resolved on SDS-PAGE gel (10% acrylamide). The gel-based ABPP results were then scanned and analyzed using a ChemiDoc MP system (Cy3 settings, BioRad).

[3] = 100 µM, AA-HNA substrate assay, Supplementary Table 1, read-out: MAGL Inhibition (%)

Structure (SMILES): O=c1cc(-c2ccc(O)cc2)oc2cc(O)cc(O)c12 [compound 9, Apigenin]
- IC50 (A549 cells): > 10 µM
- antiproliferative screening across the cell line panel [1]: neglectable antiproliferative behavior to other cell lines
- IC50 (HT-29 cells): > 10 µM
- IC50 (OVCAR-3 cells): > 10 µM
- inhibition at 100 µM (human MAGL; 100 µM, AA-HNA assay): > 80%

Structure (SMILES): COc1ccc2cc3[n+](cc2c1OC)CCc1cc2c(cc1-3)OCO2 [compound 17, Berberine chloride]
- IC50 (A549 cells): > 10 µM
- IC50 (HT-29 cells): > 10 µM
- IC50 (OVCAR-3 cells): > 10 µM
- selectivity / potential targets among serine hydrolases in cancer cells [2]: No potential target was found
- activity at 100 µM (human MAGL; [3]): 82.8%

Structure (SMILES): COc1ccc(C(C)=O)c(O)c1 [compound 64, Paeonol]
- IC50 (A549 cells): > 10 µM
- antiproliferative screening across the cell line panel [1]: selectively inhibited cell proliferation of A431 over other cell lines
- IC50 (HT-29 cells): > 10 µM
- IC50 (OVCAR-3 cells): > 10 µM
- selectivity / potential targets among serine hydrolases in cancer cells [2]: No potential target was found
- activity at 100 µM (human MAGL; [3]): 102%

Structure (SMILES): Cl.N=c1ccn2c(n1)O[C@H]1[C@H](O)[C@@H](CO)O[C@H]12 [compound 1, Cyclocytidine HCl]
- Antiproliferation activity (pIC50 ± SEM) A549 (A549 cells): 6.3 ± 0.2
- antiproliferative screening across the cell line panel [1]: appreciable inhibition against almost all the tested cell lines
- Antiproliferation activity (pIC50 ± SEM) HT-29 (HT-29 cells): <5
- Antiproliferation activity (pIC50 ± SEM) OVCAR-3 (OVCAR-3 cells): 5.7 ± 0.3
- selectivity / potential targets among serine hydrolases in cancer cells [2]: No potential target was found
- activity (human MAGL; [3]): 31.7%

Structure (SMILES): C[C@H]1COC2=C1C(=O)C(=O)c1c2ccc2c1CCCC2(C)C [compound 23, Cryptotanshinone]
- IC50 (A549 cells): 3.16 µM
- antiproliferative screening across the cell line panel [1]: appreciable inhibition against almost all the tested cell lines
- IC50 ([1]; CCK-8, read-out: pIC50 towards all eight cancer cell lines (converted)): ≤ 10 µM
- IC50 (HT-29 cells): 10 µM
- IC50 (OVCAR-3 cells): 5.01 µM
- selectivity / potential targets among serine hydrolases in cancer cells [2]: broad-spectrum inhibitor by targeting a number of serine hydrolases in cancer cells
- inhibition at 100 µM (human MAGL; 100 µM, AA-HNA assay): > 80%
- activity at 100 µM (human MAGL; [3]): 11.2%
- IC50 (human MAGL; printed in Figure 3B-D, read-out: IC50 (MAGL, AA-HNA assay)): 11 µM
- IC50 (human MAGL; recombinant human MAGL, AA-HNA assay, average ± SEM, n = 4, read-out: MAGL inhibition (pIC50) (converted)): 12.6 µM
